Test results: patent publication US20250332157A1, “SOLID COMPOSITION OF GLP-1 RECEPTOR AGONIST” (Hangzhou Zhongmeihuadong Pharmaceutical Co., Ltd., priority 2021, published 2025)
Values joined by “and” are separate entries in the source; they are usually repeats but may differ in a detail not shown here. Equal values may be shown once. Where a name gives a salt, the structure may show the parent alone.

Assays:
[1] = Forced degradation studies No. 2 of OAD2 2HCl in solution (water, HCl, NaOH, H2O2, UV light), HPLC; assay type: physicochemical
Method: A stock solution was prepared by dissolving 12.90 mg of OAD2 2 HCl in acetonitrile:water (70:30) to a final volume of 25 mL ([…]). For test groups 1 and 2, the test solution was prepared by mixing 2 mL of the stock solution and 2 mL of water. For test groups 3 and 4, the test solution was prepared by mixing 2 mL of the stock solution and 2 mL of 0.1 N HCl solution. For test groups 5 and 6, the test solution was prepared by mixing 2 mL of the stock solution and 2 mL of 0.1 N NaOH solution. Test groups 1, 3, and 5 (at room temperature) were shielded from light by wrapping with aluminum foil.
A stock solution was prepared by dissolving 5.37 mg of OAD2 2HCl in acetonitrile:water (40:60) to a final volume of 10 mL ([…]). For test group 7, the test solution was prepared by mixing 2 mL of the stock solution and 2 mL of 3% aqueous H2O2. For test group 8, the test solution was prepared by dissolving 5.58 mg to 5.64 mg of OAD2 2HCl in acetonitrile:water (40:60) to a final volume of 25 mL.
The samples in each test group were stored either at room temperature or at 60° C. and observed after the periods indicated in the Table below.
A validated, reverse phase liquid chromatography gradient method was applied to determine assay (content of the active ingredient). The column used was Supelco Ascentis Express RP-Amide, 150×3.0 mm, 2.7μ or equivalent column. Mobile phase A comprises 0.05% TFA in water (v/v). Mobile phase B comprises 0.05% TFA in acetonitrile:methanol (1:2) (v/v). The sample was run using a step gradient from time zero (50% mobile phase A) to 38 minutes (99% mobile phase B). The diluent used to dissolve the standard and sample was a 60:40 mixture of acetonitrile and water. Chromatographic peaks were detected using UV detector at 280 nm. Assay value was obtained by comparing peak responses, expressed as the peak area of a sample formulation of known concentration and the peak area obtained from a standard formulation of known concentration.
The impurities were quantitated using the assay procedure described above. […]

[2] = Forced degradation experiment of active ingredient (acid, alkali, oxidation, high temperature, light, high humidity), HPLC; assay type: physicochemical; parameters: Impurity B / Impurity E / Impurity F / Impurity G / Impurity I / Largest unknown impurity: unit not given here
Method: Preparation of solutions: • (1) destructive test article solution: 25 mg of OAD2 or a pharmaceutically acceptable salt thereof was placed into a 50 ml measuring flask. Diluent was added to dissolve it and the mixture was diluted to the scale mark, shaken well and used as a test article solution. • (2) test article solution destructed by acid: 25.35 mg of OAD2 or a pharmaceutically acceptable salt thereof was placed into a 50 ml measuring flask. 2 ml of 1 mol/L hydrochloric acid was added, and the mixture was mixed, stood at room temperature for 24 h, adjusted pH to neutral with 1 mol/L sodium hydroxide solution. Diluent was added to dilute the mixture to the scale mark. The mixture was shaken well, and used as the test article solution destructed by acid. • (3) test article solution destructed by alkali: 26.64 mg of OAD2 or a pharmaceutically acceptable salt thereof was placed into a 50 ml measuring flask. 2 ml of 1 mol/L sodium hydroxide solution was added, and the mixture was mixed, stood at room temperature for 24h, adjusted pH to neutral with 1 mol/L hydrochloric acid solution. Diluent was added to dilute the mixture to scale mark. The mixture was shaken well, and used as test article solution destructed by alkali. • (4) acid-base blank: 2 ml of 1 mol/L sodium hydroxide solution was placed into a 50 ml measuring flask. The solution was neutralized with 1 mol/L hydrochloric acid solution, then diluted to the scale mark with a diluent, and shaken well to serve as the acid-base destruction blank solution. • (5) test article solution destructed by oxidation: 28.10 mg of OAD2 or a pharmaceutically acceptable salt thereof was placed into a 50 ml measuring flask. 2 ml of 15% hydrogen peroxide was added, stood at room temperature for 9 h. The mixture was diluted to the scale mark with a diluent. […] It was dissolved and diluted to the scale mark with a diluent, shaken well, and used as the test article solution destructed by high temperature. • (8) test article solution destructed by light exposure: 25.12 mg of OAD2 or pharmaceutically acceptable salt thereof was accurately weighted, placed into a 50 ml measuring flask, stood under irradiation of light 4500 Lx+−500 Lx for 6 days. It was dissolved and diluted to the scale mark with a diluent, shaken well, and used as the test article solution destructed by light exposure. • (9) test article solution destructed by high-humidity destruction: 25.71 mg of OAD2 or a pharmaceutically acceptable salt thereof was placed into a 50 ml measuring flask, then the measuring flask was placed into a drier with KNO3 saturated solution at the bottom (humidity was 92.5%), stood for 5 days. It was dissolved and diluted to the scale mark with a diluent, shaken well, and used as the test article solution destructed by high-humidity destruction. • (10) blank solution that is not destructed, not destructed by high-temperature, not destructed by high-humidity and not destructed by light exposure: a diluent.
The measuring method: 2 μl of each of the above solutions (1)-(10) was injected into a liquid chromatograph, and the chromatograms were recorded. Among them, the results of the forced degradation experiment are shown in Table 13.1, and the results of the changes of various impurity components after the forced degradation are shown in Table 13.2. […]

[3] = test group 7: 1.5% solution of H2O2, RT, after 90 minutes

CC[C@@H](c1ccccc1)N1Cc2cc3c(cc2C[C@H]1C(=O)N[C@@H](Cc1ccc(-c2ccnc(C)c2C)cc1)C(=O)O)OC[C@H](c1ccc(OCc2ccc(Cl)c(Cl)c2)cc1)O3 [OAD2 dihydrochloride, (S)-2-(3S,8S)-3-(4-(3,4-dichlorobenzyloxy)phenyl-7-((S)-1-phenylpropyl)-2,3,6,7,8,9-hexahydro-[1,4]-dioxino[2,3-g]isoquinolin-8-formylamino)-3-(4-(2,3-dimethylpyridin-4-yl)phenyl)propanoic acid dihydrochloride]
growth of impurities by HPLC [1, 3]: significant increase in impurities
loss of active ingredient [1, 3]: 10%
growth of impurities or loss of active ingredient by HPLC ([1]; test groups 1-6 and 8: water, 0.05N HCl, 0.05N NaOH at RT or 60° C., 1 and 2 days, UV light (365 nm) RT 24 hours): no substantial growth in any impurities or loss of active ingredient

CC[C@@H](c1ccccc1)N1Cc2cc3c(cc2C[C@H]1C(=O)N[C@@H](Cc1ccc(-c2ccnc(C)c2C)cc1)C(=O)O)OC[C@H](c1ccc(OCc2ccc(Cl)c(Cl)c2)cc1)O3 [OAD2, (S)-2-(3S,8S)-3-(4-(3,4-dichlorobenzyloxy)phenyl-7-((S)-1-phenylpropyl)-2,3,6,7,8,9-hexahydro-[1,4]-dioxino[2,3-g]isoquinolin-8-ylformylamino)-3-(4-(2,3-dimethylpyridin-4-yl)phenyl)propionic acid]
Impurities C + D ([2]; Acid destruction): 0.03%
Impurity A ([2]; Acid destruction): 0.13
Impurity B ([2]; Acid destruction): Undetected
Impurity E ([2]; Acid destruction): Undetected
Impurity F ([2]; Acid destruction): 0.34
Impurity G ([2]; Acid destruction): 0.05
Impurity H ([2]; Acid destruction): Undetected
Impurity I ([2]; Acid destruction): Undetected
Largest unknown impurity ([2]; Acid destruction): 0.07
Number of impurities (≥0.05%) ([2]; Acid destruction): 4
Purity of main peak ([2]; Acid destruction): 99.4%
Total Impurities ([2]; Acid destruction): 0.65%
Impurities C + D ([2]; Alkali destruction): 0.05%
Impurity A ([2]; Alkali destruction): 0.13
Impurity B ([2]; Alkali destruction): 0.02
Impurity E ([2]; Alkali destruction): Undetected
Impurity F ([2]; Alkali destruction): 0.36
Impurity G ([2]; Alkali destruction): 0.07
Impurity H ([2]; Alkali destruction): Undetected
Impurity I ([2]; Alkali destruction): Undetected
Largest unknown impurity ([2]; Alkali destruction): 0.07
Number of impurities (≥0.05%) ([2]; Alkali destruction): 4
Purity of main peak ([2]; Alkali destruction): 99.3%
Total Impurities ([2]; Alkali destruction): 0.73%
Impurities C + D ([2]; High humidity destruction): 0.04%
Impurity A ([2]; High humidity destruction): 0.12
Impurity B ([2]; High humidity destruction): Undetected
Impurity E ([2]; High humidity destruction): 0.01
Impurity F ([2]; High humidity destruction): 0.31
Impurity G ([2]; High humidity destruction): 0.04
Impurity H ([2]; High humidity destruction): Undetected
Impurity I ([2]; High humidity destruction): Undetected
Largest unknown impurity ([2]; High humidity destruction): 0.08
Number of impurities (≥0.05%) ([2]; High humidity destruction): 3
Purity of main peak ([2]; High humidity destruction): 99.3%
Total Impurities ([2]; High humidity destruction): 0.68%
Impurities C + D ([2]; High temperature destruction): 0.08%
Impurity A ([2]; High temperature destruction): 1.76
Impurity B ([2]; High temperature destruction): 0.97
Impurity E ([2]; High temperature destruction): 0.08
Impurity F ([2]; High temperature destruction): 0.26
Impurity G ([2]; High temperature destruction): 0.09
Impurity H ([2]; High temperature destruction): 0.02
Impurity I ([2]; High temperature destruction): Undetected
Largest unknown impurity ([2]; High temperature destruction): 2.36
Number of impurities (≥0.05%) ([2]; High temperature destruction): 25
Purity of main peak ([2]; High temperature destruction): 92.2%
Total Impurities ([2]; High temperature destruction): 7.8%
Impurities C + D ([2]; Light exposure destruction): 0.01%
Impurity A ([2]; Light exposure destruction): 1.13
Impurity B ([2]; Light exposure destruction): 0.26
Impurity E ([2]; Light exposure destruction): 0.12
Impurity F ([2]; Light exposure destruction): 0.22
Impurity G ([2]; Light exposure destruction): 0.03
Impurity H ([2]; Light exposure destruction): 0.38
Impurity I ([2]; Light exposure destruction): Undetected
Largest unknown impurity ([2]; Light exposure destruction): 0.78
Number of impurities (≥0.05%) ([2]; Light exposure destruction): 24
Purity of main peak ([2]; Light exposure destruction): 93.1%
Total Impurities ([2]; Light exposure destruction): 6.9%
Impurities C + D ([2]; No destruction): 0.05%
Impurity A ([2]; No destruction): 0.12
Impurity B ([2]; No destruction): Undetected
Impurity E ([2]; No destruction): Undetected
Impurity F ([2]; No destruction): 0.31
Impurity G ([2]; No destruction): 0.03
Impurity H ([2]; No destruction): Undetected
Impurity I ([2]; No destruction): Undetected
Largest unknown impurity ([2]; No destruction): 0.07
Number of impurities (≥0.05%) ([2]; No destruction): 3
Purity of main peak ([2]; No destruction): 99.4%
Total Impurities ([2]; No destruction): 0.6%
Impurities C + D ([2]; Oxidative destruction): 0.18%
Impurity A ([2]; Oxidative destruction): 0.36
Impurity B ([2]; Oxidative destruction): 2.77
Impurity E ([2]; Oxidative destruction): Undetected
Impurity F ([2]; Oxidative destruction): 0.26
Impurity G ([2]; Oxidative destruction): 0.20
Impurity H ([2]; Oxidative destruction): Undetected
Impurity I ([2]; Oxidative destruction): 0.02
Largest unknown impurity ([2]; Oxidative destruction): 2.56
Number of impurities (≥0.05%) ([2]; Oxidative destruction): 18
Purity of main peak ([2]; Oxidative destruction): 91.6% and 91.8%
Total Impurities ([2]; Oxidative destruction): 8.2%
